Assay results as given in patent publication US20090062214A1, “Left-Side Glucose Lipid a Analogue” (priority 2004, published 2009).
Like-named read-outs stand apart in the source and are kept apart here.

How the values were obtained:
[1] = test system: TNFα production in human whole blood; assay: Test for inhibition against TNFα production in human whole blood (in vitro); format: cell-based
Method: This test was performed according to the method by Hartman et al. (D. A. Hartman, S. J. Ochalski and R. P. Carlson; The effects of antiinflammatory and antiallergic drugs on cytokine release after stimulation of human whole blood by lipopolysaccharide and zymosan A: Inflamm. Res., 44, 269 (1995)).
Peripheral blood was obtained from a healthy volunteer in the presence of heparin. 360 μL of whole blood was added to a 96-well block to which 20 μL of a dimethyl sulfoxide solution of the analyte compound was previously added. 20 μL of lipopolysaccharide (LPS) (derived from E. coli 026:B6 available from SIGMA Inc.) (final concentration: 10 ng/mL) was further added thereto as a stimulant, and the mixture was sufficiently mixed and incubated under conditions of 37° C. and 5% CO2 for 6 hours. After completion of the incubation, the mixture was cooled to 4° C. to discontinue the reaction, and the mixture was immediately centrifuged at 2000 rpm for 15 minutes. The supernatant plasma was then separated and collected. The TNFα produced and released in the plasma was measured by an enzyme-linked immunosorbent assay (ELISA) kit (made by Biosource International). The inhibition rate was determined from the amount of cytokine produced in the presence and in the absence of the analyte compound. IC50 values were calculated from the average of the inhibition rates by the least-square method. For comparison, an IC50 value was calculated in the same manner as in the case of the test compound, using a compound described in U.S. Pat. No. 5,935,938 as a comparative compound. The structural formula of the comparative compound is shown.
This test was performed in the same manner as in Test Example 1. The same comparative compound as in Test Example 1 was used.

[2] = test system: mouse fatal state after GalN.LPS injection; assay: Survival test for mouse fatal state (in vivo); design: species or system C3H/HeN mice; settings: tail vein
Method: (§1) A group of five C3H/HeN mice (male, 7-week old) known to be highly sensitive to lipopolysaccharide (LPS) was used. Galactosamine (GalN, 1 g/5 mL) and LPS (0.05 mg/5 mL) were each dissolved in normal saline, and they were mixed in equal amounts to prepare a GalN.LPS solution. The prepared GalN.LPS solution was injected into the tail vein in a dose of 10 mL/kg. The test compound was dissolved in a 0.1% aqueous triethylamine solution and the mixture was injected into the tail vein in a dose of 10 mL/kg substantially simultaneously with the injection of the GalN.LPS solution. […] The amount of TNFα produced in the plasma was measured using a commercially available TNFα ELISA kit. The inhibitory activity against TNFα production of the test compound was calculated as an inhibition rate against TNFα produced in response to the GalN.LPS injection. A regression line was obtained from the inhibition rates and the doses for the mice. The ID50 value (a dose at which the inhibition rate is 50%) was calculated from the regression line.
This test was performed according to the method by H. Takada (The Journal of Infectious Diseases 162, 428-434 (1990)).
Whether mice were alive or not was observed 72 hours after injection of a GalN.LPS solution, and the survival rate was calculated. The strain, age in week and gender of the mice used, the method of preparing the GalN.LPS solution and the compound solution administered, the administration route, the timing and the like were the same as in Test Example 3. A group of 8 mice was used in the test.

TNFα production in mice = assay: Test for inhibitory activity against TNFα production in mice (in vivo); design: species or system C3H/HeN mice; settings: GalN.LPS, tail vein injection, plasma TNFα after an hour
Method: This test was performed according to the method by Y. Endo et al. (British Journal of Pharmacology 128, 5-12 (1999)).
as §1

[3] = human whole blood, LPS 10 ng/mL, 6 hours, ELISA, Test Example 1, Table 1, read-out: IC50 (nM), inhibition of TNFα production

Row | SMILES | Survival rate (%) of mice after 72 hours ([2]; dose 0.3 mg/kg, Table 7) [%] | Survival rate (%) of mice after 72 hours ([2]; dose 0.3 mg/kg, Table 8) [%] | Survival rate (%) of mice after 72 hours ([2]; dose 0.3 mg/kg, Table 9) [%] | Survival rate (%) of mice after 72 hours ([2]; dose 1 mg/kg, Table 7) [%] | Survival rate (%) of mice after 72 hours ([2]; dose 1 mg/kg, Table 8) [%] | Survival rate (%) of mice after 72 hours ([2]; dose 1 mg/kg, Table 9) [%] | Survival rate (%) of mice after 72 hours ([2]; dose 3 mg/kg, Table 7) [%] | Survival rate (%) of mice after 72 hours ([2]; dose 3 mg/kg, Table 8) [%] | Survival rate (%) of mice after 72 hours ([2]; dose 3 mg/kg, Table 9) [%] | ID50 (mg/kg), inhibition of TNFα production (TNFα production in mice; Table 4) [mg/kg] | ID50 (mg/kg), inhibition of TNFα production (TNFα production in mice; Table 5) [mg/kg] | ID50 (mg/kg), inhibition of TNFα production (TNFα production in mice; Table 6) [mg/kg] | IC50 [1, 3] [nM] | further results
1 | CCCCCC/C=C\CCCCCCCCCC(=O)N[C@H]1[C@H](OC[C@H]2O[C@H](OP(=O)(O)O)[C@H](NC(=O)CC(=O)CCCCCCCCCCC)[C@@H](OCCCCCCCCCC)[C@@H]2O)O[C@H](COC)[C@@H](OP(=O)(O)O)[C@@H]1OCC[C@@H](CCCCCCC)OC [Comparative Compound, reference compound] | 25 | 50 | 13 | 63 | 75 | 0 | 100 | 50 | 25 | 2.12 | 3.28 | 1.82 |  | IC50 ([1]; Homo sapiens, 6 h, read-out: IC50 (nM), inhibition of TNFα production, human whole blood, LPS 10 ng/mL, 6 hours, ELISA, Test Example 1, Table 1): 0.97 nM; IC50 ([1]; Homo sapiens, 6 h, read-out: IC50 (nM), inhibition of TNFα production, human whole blood, LPS 10 ng/mL, 6 hours, ELISA, Test Example 2, Table 2): 2.94 nM; IC50 ([1]; Homo sapiens, 6 h, read-out: IC50 (nM), inhibition of TNFα production, human whole blood, LPS 10 ng/mL, 6 hours, ELISA, Test Example 2, Table 3): 8.24 nM
2 | CCCCCC/C=C\CCCCCCCCCC(=O)O[C@H]1[C@H](OC[C@H]2O[C@H](OP(=O)(O)O)[C@H](NC(=O)CC(=O)CCCCCCCCCCC)[C@@H](OCCCCCCCCCC)[C@@H]2O)O[C@H](COC)[C@@H](OP(=O)(O)O)[C@@H]1OCC[C@@H](CCCCCCC)OC [Compound 1, Phosphono 3-O-decyl-2-deoxy-6-O-{3-O-[(R)-3-methoxydecyl]-6-O-methyl-2-O-[(Z)-11-octadecenoyl]-4-O-phosphono-β-D-glucopyranosyl}-2-(3-oxotetradecanoylamino)-α-D-glucopyranoside] |  |  |  |  |  |  |  |  |  | 0.45 |  |  | 0.49 | 
3 | CCCCCC/C=C\CCCCCCCCCCO[C@H]1[C@H](OC[C@H]2O[C@H](OP(=O)(O)O)[C@H](NC(=O)CC(=O)CCCCCCCCCCC)[C@@H](OCCCCCCCCCC)[C@@H]2O)O[C@H](COC)[C@@H](OP(=O)(O)O)[C@@H]1OCC[C@@H](CCCCCCC)OC [Compound 2, Phosphono 3-O-decyl-2-deoxy-6-O-{3-O-[(R)-3-methoxydecyl]-6-O-methyl-2-O-[(Z)-11-octadecenyl]-4-O-phosphono-β-D-glucopyranosyl}-2-(3-oxotetradecanoylamino)-α-D-glucopyranoside] | 38 |  |  | 75 |  |  | 100 |  |  | <0.2 |  |  | 0.51 | 
4 | CCCCCC/C=C\CCCCCCCCCC(=O)O[C@H]1[C@H](OC[C@H]2O[C@H](OP(=O)(O)O)[C@H](NC(=O)CC(=O)CCCCCCCCCCC)[C@@H](OCCCCCCCCCC)[C@@H]2O)O[C@H](CO)[C@@H](OP(=O)(O)O)[C@@H]1OCC[C@@H](CCCCCCC)OC [Compound 3, Phosphono 3-O-decyl-2-deoxy-6-O-{3-O-[(R)-3-methoxydecyl]-2-O-[(Z)-11-octadecenoyl]-4-O-phosphono-β-D-glucopyranosyl}-2-(3-oxotetradecanoylamino)-α-D-glucopyranoside] | 50 |  |  | 100 |  |  | 100 |  |  | 0.96 |  |  | 0.65 | 
5 | CCCCCC/C=C\CCCCCCCCCC(=O)O[C@H]1[C@H](OC[C@H]2O[C@H](OP(=O)(O)O)[C@H](OC(=O)CC(=O)CCCCCCCCCCC)[C@@H](OCCCCCCCCCC)[C@@H]2O)O[C@H](COC)[C@@H](OP(=O)(O)O)[C@@H]1OCC[C@@H](CCCCCCC)OC [Compound 8, phosphono 3-O-decyl-6-O-{3-O-[(R)-3-methoxydecyl]-6-O-methyl-2-O-[(Z)-11-octadecenoyl]-4-O-phosphono-β-D-glucopyranosyl}-2-O-(3-oxotetradecanoyl)-α-D-glucopyranoside] |  | 50 |  |  | 75 |  |  | 100 |  |  | 0.55 |  |  | IC50 ([1]; human whole blood, LPS 10 ng/mL, 6 hours, ELISA, Test Example 2, Table 2, read-out: IC50 (nM), inhibition of TNFα production): 0.06 nM
6 | CCCCCC/C=C\CCCCCCCCCC(=O)O[C@H]1[C@H](OC[C@H]2O[C@H](OP(=O)(O)O)[C@H](OC(=O)CC(=O)CCCCCCCCCCC)[C@@H](OCCCCCCCCCC)[C@@H]2O)O[C@H](CO)[C@@H](OP(=O)(O)O)[C@@H]1OCC[C@@H](CCCCCCC)OC [Compound 9, Phosphono 3-O-decyl-6-O-{3-O-[(R)-3-methoxydecyl]-2-O-[(Z)-11-octadecenoyl]-4-O-phosphono-β-D-glucopyranosyl}-2-O-(3-oxotetradecanoyl)-α-D-glucopyranoside] |  |  | 13 |  |  | 38 |  |  | 100 |  |  | <0.2 |  | IC50 ([1]; human whole blood, LPS 10 ng/mL, 6 hours, ELISA, Test Example 2, Table 3, read-out: IC50 (nM), inhibition of TNFα production): 0.83 nM
